The text below walks through data of paper PMC3899824 (Investigational new drugs, 2013).

Assay [1] has as its system MM.1S multiple myeloma cells. Briefly: Apoptosis by AnnexinV/PI flow cytometry, MM.1S. The format is cell-based, human. (In general: Flow cytometry measures light scatter and fluorescence of single cells or particles in a stream.)
The test system of assay [2] is 8226/S multiple myeloma cells. Briefly: Apoptosis by AnnexinV/PI flow cytometry, 8226/S. The class given is cell-based, human.
Assay [3] deals with MM.1S multiple myeloma cells. The settings on record: colcemid-treated, concentration not given.
For assay [4], the system named is 8226/S multiple myeloma cells. The settings on record: colcemid-treated, concentration not given.
The test system of the next assay is tubulin. Briefly: Cell-free tubulin polymerization assay. The class given is biochemical. The following applies: 10 μM, 60m at 340 nm.
A further assay concerns 8226/Dox40 cell line. The settings on record: no reference given; cited from earlier work.
[5] abbreviates: 5 μM pan-caspase inhibitor 30m before 200 nM PC-046 24h.
Setting [6] is: 5 μM caspase 8 inhibitor 30m before 200 nM PC-046 24h.

*: point of attachment. Cbz = O=C(OCc1ccccc1)*; CH2F = FC*

As to `CC(C)[C@H](NC(=O)c1ccc2ccccc2n1)C(=O)N[C@@H](CC(=O)O)C(=O)COc1c(F)cccc1F` [Q-VD-OPh], the AnnexinV-positive cells was determined as 12.8% in assay [1] (setting [5]) and 13.5% in assay [2] (setting [5]).
In the case of `CN[C@H]1CCc2cc(OC)c(OC)c(OC)c2-c2ccc(OC)c(=O)cc21` [colcemid, reference compound], the “% positive histone H3 cells, mean (SEM)” value is given as 12.54 (0.73) % in assay [3] and 39.40 (1.48) % in assay [4].
As to `CC(=O)O[C@H]1C(=O)[C@@]2(C)[C@H]([C@H](OC(=O)c3ccccc3)[C@]3(O)C[C@H](OC(=O)[C@H](O)[C@@H](NC(=O)c4ccccc4)c4ccccc4)C(C)=C1C3(C)C)[C@]1(OC(C)=O)CO[C@@H]1C[C@@H]2O` [paclitaxel], the “effect on tubulin polymerization” value in the assay on tubulin was “stabilized tubulin polymerization”.
As for `CC[C@]1(O)C[C@H]2CN(CCc3c([nH]c4ccccc34)[C@@](C(=O)OC)(c3cc4c(cc3OC)N(C=O)[C@H]3[C@@](O)(C(=O)OC)[C@H](OC(C)=O)[C@]5(CC)C=CCN6CC[C@]43[C@@H]65)C2)C1` [vincristine], the “effect on tubulin polymerization” value in the assay on tubulin was “a reduction in the amount of tubulin polymer formed”. Besides, the “resistance conferred by ABCB1 (Pgp/MDR1)” value in the assay with 8226/Dox40 cell line is “approximately 200 fold”.
Take Cbz-IETD-CH2F: the AnnexinV-positive cells in assay [1] (setting [6]) amounted to 32.6%; in assay [2] (setting [6]), 25.1%.
